Source: patent publication US5405849A, “Angiotensin II receptor blocking 2,3,6 substituted quinazolinones” (American Cyanamid Company, priority 1993, dated 1995)
One block for each compound: values may come before it.

Tests used:
[1] = test system: angiotensin II (AII) vasopressor response; assay: AII challenge: antagonism of the vasopressor response of angiotensin II in conscious Okamoto-Aoki SHR; assay type: in vivo, rat (Okamoto-Aoki SHR); conditions: for inhibition in vivo at 1 mg/kg / inhibition in vivo at 2 mg/kg / inhibition in vivo at 3 mg/kg / inhibition in vivo at 5 mg/kg: Rattus norvegicus; for inhibition in vivo at 1 mg/kg / inhibition in vivo at 2 mg/kg / inhibition in vivo at 3 mg/kg: iv; for inhibition in vivo at 5 mg/kg: po
Excerpt: Conscious Male Okamoto-Aoki SHR, 16-20 weeks old, weighing approximately 330 g are purchased from Charles River Labs (Wilmington, Mass.). Conscious rats are restrained in a supine position with elastic tape. The area at the base of the tail is locally anesthetized by subcutaneous infiltration with 2% procaine. The ventral caudal artery and vein are isolated, and a cannula made of polyethylene (PE) 10-20 tubing (fused together by heat) is passed into the lower abdominal aorta and vena cava, respectively. The cannula is secured, heparinized (1,000 I.U./ml), sealed and the wound is closed. The animals are placed in plastic restraining cages in an upright position. The cannula is attached to a Statham P23Db pressure transducer, and pulsatile blood pressure is recorded to 10-15 minutes with a Gould Brush recorder.
Angiotensin II (human sequence, Sigma Chem. Co., St. Louis, Mo.) of 0.05 and 0.1 ug/kg i.v. is injected into all rats (predosing response). Then a test compound, vehicle or a known angiotensin II antagonist is administered i.v., i.p. or orally to each set of rats. […] The vasopressor response of angiotensin II is measured for the increase in systolic blood pressure in mmHg. The percentage of antagonism or blockade of the vasopressor response of angiotensin II by a compound is calculated using the vasopressor response (increase in systolic blood pressure) of angiotensin II of each rat predosing the compound as 100%.

angiotensin II receptors = assay: Angiotensin II receptor binding (displacement of 3H-angiotensin II), rat adrenocortical microsomes; conditions: 2 nM 3H-angiotensin II
Experimental: The source of the angiotensin II receptors utilized in the screen is from rat adrenocortical microsomes. The cortices are placed in ice cold sucrose buffer (0.2 m sucrose, 1 mm EDTA, 10 mm Trizma base, pH 7.4) and homogenized in a chilled ground glass tissue grinder. The homogenate is centrifuged at 3000×g for 10 min. and the resultant supernatant is decanted through cheesecloth and centrifuged at 12,000×g for 3 min. […] Binding assays are performed by incubating aliquots of freshly prepared microsomes in the absence or presence of compound (40 uM final concentration). Ten minutes later, ^3 H-angiotensin II is added to each tube (2 nM final concentration) and incubated for 60 minutes at […]. The reaction is terminated by the addition of 3 ml of cold assay buffer without albumin and the bound and free radioactivity is separated rapidly through glass-fiber filters prewetted with assay buffer. After two additional 3 ml rinses, the filters are placed in scintillation fluid and counted in a scintillation counter to determine trapped radioactivity.

[2] = 1 mg/kg iv, AII .025 ug/kg, 15 min
[3] = 1 mg/kg iv, AII .025 ug/kg, 30 min
[4] = 1 mg/kg iv, AII .025 ug/kg, 60 min
[5] = 1 mg/kg iv, AII .05 ug/kg, 15 min
[6] = 1 mg/kg iv, AII .05 ug/kg, 30 min
[7] = 1 mg/kg iv, AII .05 ug/kg, 60 min
[8] = 1 mg/kg iv, AII .1 ug/kg, 15 min
[9] = 1 mg/kg iv, AII .1 ug/kg, 30 min
[10] = 1 mg/kg iv, AII .1 ug/kg, 60 min
[11] = 2 mg/kg iv, AII .025 ug/kg, 120 min
[12] = 2 mg/kg iv, AII .025 ug/kg, 150 min
[13] = 2 mg/kg iv, AII .05 ug/kg, 120 min
[14] = 2 mg/kg iv, AII .05 ug/kg, 150 min
[15] = 2 mg/kg iv, AII .1 ug/kg, 120 min
[16] = 0.25 h, 1 mg/kg iv, AII .025 ug/kg, 15 min
[17] = 0.25 h, 1 mg/kg iv, AII .05 ug/kg, 15 min
[18] = 0.25 h, 1 mg/kg iv, AII .1 ug/kg, 15 min
[19] = 0.5 h, 1 mg/kg iv, AII .025 ug/kg, 30 min
[20] = 0.5 h, 1 mg/kg iv, AII .05 ug/kg, 30 min
[21] = 0.5 h, 1 mg/kg iv, AII .1 ug/kg, 30 min
[22] = 1 h, 1 mg/kg iv, AII .025 ug/kg, 60 min
[23] = 1 h, 1 mg/kg iv, AII .05 ug/kg, 60 min
[24] = 1 h, 1 mg/kg iv, AII .1 ug/kg, 60 min
[25] = 2 h, 2 mg/kg iv, AII .025 ug/kg, 120 min
[26] = 2 h, 2 mg/kg iv, AII .05 ug/kg, 120 min
[27] = 2 h, 2 mg/kg iv, AII .1 ug/kg, 120 min
[28] = 2.5 h, 2 mg/kg iv, AII .025 ug/kg, 150 min
[29] = 2.5 h, 2 mg/kg iv, AII .05 ug/kg, 150 min
[30] = 2.5 h, 2 mg/kg iv, AII .1 ug/kg, 150 min

IC50 (angiotensin II receptors): 8.6 nM
Structure (SMILES): CCCCc1nc2ccc(C(OC)c3ccccc3)cc2c(=O)n1Cc1ccc(-c2ccccc2-c2nnn[nH]2)cc1 (stereo not shown) [Example 56, 2-Butyl-6-(methoxyphenylmethyl)-3-[[2'-(1H-tetrazol-5-yl)[1,1'-biphenyl]-4-yl]methyl]-4(3H)-quinazolinone]
Response change (systolic BP increase to AII) [1, 2]: 18 mmHg | Response change (systolic BP increase to AII) [1, 3]: 27 mmHg | Response change (systolic BP increase to AII) [1, 4]: 20 mmHg | Response change (systolic BP increase to AII) [1, 5]: 15 mmHg | Response change (systolic BP increase to AII) [1, 6]: 15 mmHg | Response change (systolic BP increase to AII) [1, 7]: 20 mmHg | Response change (systolic BP increase to AII) [1, 8]: 15 mmHg | Response change (systolic BP increase to AII) [1, 9]: 20 mmHg | Response change (systolic BP increase to AII) [1, 10]: 30 mmHg | Response change (systolic BP increase to AII) ([1]; 2 mg/kg iv, AII .025 ug/kg, 90 min): 10 mmHg | Response change (systolic BP increase to AII) [1, 11]: 20 mmHg | Response change (systolic BP increase to AII) [1, 12]: 15 mmHg | Response change (systolic BP increase to AII) ([1]; 2 mg/kg iv, AII .05 ug/kg, 90 min): 15 mmHg | Response change (systolic BP increase to AII) [1, 13]: 15 mmHg | Response change (systolic BP increase to AII) [1, 14]: 10 mmHg | Response change (systolic BP increase to AII) ([1]; 2 mg/kg iv, AII .1 ug/kg, 90 min): 5 mmHg | Response change (systolic BP increase to AII) [1, 15]: 15 mmHg | Response change (systolic BP increase to AII) ([1]; 2 mg/kg iv, AII .1 ug/kg, 150 min): 20 mmHg | inhibition in vivo at 1 mg/kg [1, 16]: 40% | inhibition in vivo at 1 mg/kg [1, 17]: 57% | inhibition in vivo at 1 mg/kg [1, 18]: 57% | inhibition in vivo at 1 mg/kg [1, 19]: 27% | inhibition in vivo at 1 mg/kg [1, 20]: 57% | inhibition in vivo at 1 mg/kg [1, 21]: 43% | inhibition in vivo at 1 mg/kg [1, 22]: 33% | inhibition in vivo at 1 mg/kg [1, 23]: 43% | inhibition in vivo at 1 mg/kg [1, 24]: 14% | inhibition in vivo at 2 mg/kg ([1]; 1.5 h, 2 mg/kg iv, AII .025 ug/kg, 90 min): 67% | inhibition in vivo at 2 mg/kg ([1]; 1.5 h, 2 mg/kg iv, AII .05 ug/kg, 90 min): 57% | inhibition in vivo at 2 mg/kg ([1]; 1.5 h, 2 mg/kg iv, AII .1 ug/kg, 90 min): 86% | inhibition in vivo at 2 mg/kg [1, 25]: 33% | inhibition in vivo at 2 mg/kg [1, 26]: 57% | inhibition in vivo at 2 mg/kg [1, 27]: 57% | inhibition in vivo at 2 mg/kg [1, 28]: 50% | inhibition in vivo at 2 mg/kg [1, 29]: 71% | inhibition in vivo at 2 mg/kg [1, 30]: 43%

Structure (SMILES): CCCCc1nc2ccc(C(C)(C)OC)cc2c(=O)n1Cc1ccc(-c2ccccc2-c2nnn[nH]2)cc1 [Example 57, 2-Butyl-6-(1-methoxy-1-methylethyl)-3-[[2'-(1H-tetrazol-5-yl)[1,1'-biphenyl]-4-yl]methyl]-4(3H)-quinazolinone]
Response change (systolic BP increase to AII) [1, 2]: 15 mmHg | Response change (systolic BP increase to AII) [1, 3]: 15 mmHg | Response change (systolic BP increase to AII) [1, 4]: 5 mmHg | Response change (systolic BP increase to AII) [1, 5]: 5 mmHg | Response change (systolic BP increase to AII) [1, 6]: 10 mmHg | Response change (systolic BP increase to AII) [1, 7]: 15 mmHg | Response change (systolic BP increase to AII) [1, 8]: 25 mmHg | Response change (systolic BP increase to AII) [1, 9]: 35 mmHg | Response change (systolic BP increase to AII) [1, 10]: 35 mmHg | Response change (systolic BP increase to AII) ([1]; 2 mg/kg iv, AII .025 ug/kg, 30 min): 0 mmHg | Response change (systolic BP increase to AII) [1, 11]: 60 mmHg | Response change (systolic BP increase to AII) [1, 12]: 0 mmHg | Response change (systolic BP increase to AII) ([1]; 2 mg/kg iv, AII .05 ug/kg, 30 min): 0 mmHg | Response change (systolic BP increase to AII) [1, 13]: 30 mmHg | Response change (systolic BP increase to AII) [1, 14]: 0 mmHg | Response change (systolic BP increase to AII) ([1]; 2 mg/kg iv, AII .1 ug/kg, 30 min): 0 mmHg | Response change (systolic BP increase to AII) [1, 15]: 20 mmHg | Response change (systolic BP increase to AII) ([1]; 3 mg/kg iv, AII .025 ug/kg, 150 min): 15 mmHg | Response change (systolic BP increase to AII) ([1]; 3 mg/kg iv, AII .05 ug/kg, 150 min): 15 mmHg | Response change (systolic BP increase to AII) ([1]; 3 mg/kg iv, AII .1 ug/kg, 150 min): 25 mmHg | Response change (systolic BP increase to AII) ([1]; 5 mg/kg oral, AII .025 ug/kg, 240 min): 0 mmHg | inhibition in vivo at 1 mg/kg [1, 16]: 50% | inhibition in vivo at 1 mg/kg [1, 17]: 89% | inhibition in vivo at 1 mg/kg [1, 18]: 48% | inhibition in vivo at 1 mg/kg [1, 19]: 50% | inhibition in vivo at 1 mg/kg [1, 20]: 78% | inhibition in vivo at 1 mg/kg [1, 21]: 27% | inhibition in vivo at 2 mg/kg ([1]; 0.5 h, 2 mg/kg iv, AII .025 ug/kg, 30 min): 100% | inhibition in vivo at 2 mg/kg ([1]; 0.5 h, 2 mg/kg iv, AII .05 ug/kg, 30 min): 100% | inhibition in vivo at 2 mg/kg ([1]; 0.5 h, 2 mg/kg iv, AII .1 ug/kg, 30 min): 100% | inhibition in vivo at 1 mg/kg [1, 22]: 83% | inhibition in vivo at 1 mg/kg [1, 23]: 67% | inhibition in vivo at 1 mg/kg [1, 24]: 27% | inhibition in vivo at 2 mg/kg [1, 25]: 100% | inhibition in vivo at 2 mg/kg [1, 26]: 33% | inhibition in vivo at 2 mg/kg [1, 27]: 58% | inhibition in vivo at 2 mg/kg [1, 28]: 100% | inhibition in vivo at 2 mg/kg [1, 29]: 100% | inhibition in vivo at 2 mg/kg [1, 30]: 82% | inhibition in vivo at 3 mg/kg ([1]; 2.5 h, 3 mg/kg iv, AII .025 ug/kg, 150 min): 50% | inhibition in vivo at 3 mg/kg ([1]; 2.5 h, 3 mg/kg iv, AII .05 ug/kg, 150 min): 67% | inhibition in vivo at 3 mg/kg ([1]; 2.5 h, 3 mg/kg iv, AII .1 ug/kg, 150 min): 48% | inhibition in vivo at 5 mg/kg ([1]; 0.5 h, 5 mg/kg oral, AII .025 ug/kg, 30 min): 94% | inhibition in vivo at 5 mg/kg ([1]; 1 h, 5 mg/kg oral, AII .025 ug/kg, 60 min): 89% | inhibition in vivo at 5 mg/kg ([1]; 1.5 h, 5 mg/kg oral, AII .05 ug/kg, 90 min): 61% | inhibition in vivo at 5 mg/kg ([1]; 1.5 h, 5 mg/kg oral, AII .1 ug/kg, 90 min): 36% | inhibition in vivo at 5 mg/kg ([1]; 2 h, 5 mg/kg oral, AII .025 ug/kg, 120 min): 94% | inhibition in vivo at 5 mg/kg ([1]; 2 h, 5 mg/kg oral, AII .1 ug/kg, 120 min): 40% | inhibition in vivo at 5 mg/kg ([1]; 3 h, 5 mg/kg oral, AII .025 ug/kg, 180 min): 72% | inhibition in vivo at 5 mg/kg ([1]; 3 h, 5 mg/kg oral, AII .05 ug/kg, 180 min): 68% | inhibition in vivo at 5 mg/kg ([1]; 3 h, 5 mg/kg oral, AII .1 ug/kg, 180 min): 56% | inhibition in vivo at 5 mg/kg ([1]; 4 h, 5 mg/kg oral, AII .025 ug/kg, 240 min): 100% | inhibition in vivo at 5 mg/kg ([1]; 4 h, 5 mg/kg oral, AII .05 ug/kg, 240 min): 49% | inhibition in vivo at 5 mg/kg ([1]; 4 h, 5 mg/kg oral, AII .1 ug/kg, 240 min): 48%
